Columns and labels:
mouse splenocytes = assay: Splenic cell proliferation assay (anti-IgM stimulated B cell proliferation, Cell Titer-Glo); assay type: cell-based; settings: Splenocyte; CD1 mouse splenocytes, 1 h pre-treatment, 2.5 ug/ml anti-IgM F(ab')2 for 72 h; read-out: EC50 (nM), Inhibition of splenic cell proliferation
Procedure: Splenic Cell Proliferation Assay
Splenocytes were obtained from 6 week old male CD1 mice (Charles River Laboratories Inc.). Mouse spleens were manually disrupted in PBS and filtered using a 70 μm cell strainer followed by ammonium chloride red blood cell lysis. Cells were washed, resuspended in Splenocyte Medium (HyClone RPMI supplemented with 10% heat-inactivated FBS, 0.5× non-essential amino acids, 10 mM HEPES, 50 uM beta mercaptoethanol) and incubated at 37° C., 5% CO2 for 2 h to remove adherent cells. Suspension cells were seeded in 96 well plates at 50,000 cells per well and incubated at 37° C., 5% CO2 for 1 h. Splenocytes were pre-treated in triplicate with 10,000 nM curves of Formula 1 compounds for 1 h, followed by stimulation of B cell proliferation with 2.5 ug/ml anti-IgM F(ab′)2 (Jackson ImmunoResearch) for 72 h. Cell proliferation was measured by Cell Titer-Glo Luminescent Assay (Promega). EC50 values (50% proliferation in the presence of compound as compared to vehicle treated controls) were calculated from dose response compound curves using GraphPad Prism Software.
EC50 values are reported in Table 4: • a—Less than 100 nM; b—less than 1000 nM; c—more than 1000 nM

[1] = target: T1, histidine tagged recombinant human full-length Bruton Agammaglobulinemia Tyrosine Kinase (Btk) (Homo sapiens, UniProt Q06187); assay: Btk kinase inhibition assay (fluorescence polarization, KinEASE FP Fluorescein Green); assay type: biochemical; settings: 10 μM ATP, 250 μM substrate, 60 minutes, room temperature; Ki from IC50 by Cheng-Prusoff; read-out: ki50 (nM), Inhibition of Btk
T1 construct: recombinant human full-length Bruton Agammaglobulinemia Tyrosine Kinase (Btk); histidine tag
T1 sequence (Q06187 whole entry): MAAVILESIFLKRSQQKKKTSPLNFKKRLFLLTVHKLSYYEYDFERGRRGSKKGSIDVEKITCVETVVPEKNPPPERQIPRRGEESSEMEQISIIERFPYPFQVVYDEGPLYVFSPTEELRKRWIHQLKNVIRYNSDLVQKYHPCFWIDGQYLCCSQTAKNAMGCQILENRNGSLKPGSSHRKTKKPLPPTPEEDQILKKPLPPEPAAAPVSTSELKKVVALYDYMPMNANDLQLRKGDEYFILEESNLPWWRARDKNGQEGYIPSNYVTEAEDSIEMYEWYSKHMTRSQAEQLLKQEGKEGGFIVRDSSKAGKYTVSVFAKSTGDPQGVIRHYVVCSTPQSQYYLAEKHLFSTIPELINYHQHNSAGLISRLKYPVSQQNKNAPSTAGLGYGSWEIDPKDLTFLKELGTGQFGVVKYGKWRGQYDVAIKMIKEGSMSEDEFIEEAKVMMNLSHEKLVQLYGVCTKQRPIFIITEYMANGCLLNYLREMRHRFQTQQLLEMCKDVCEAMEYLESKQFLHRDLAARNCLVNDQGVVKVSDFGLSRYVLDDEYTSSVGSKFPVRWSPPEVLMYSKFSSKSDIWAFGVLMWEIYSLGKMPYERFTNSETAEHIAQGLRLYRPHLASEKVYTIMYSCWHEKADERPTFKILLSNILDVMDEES
Procedure: (§1) Kinase Binding Btk and Lck Kinase Inhibition Assay
(§2) Fluorescence polarization-based kinase assays were performed in 384 well-plate format using histidine tagged recombinant human full-length Bruton Agammaglobulinemia Tyrosine Kinase (Btk) or histidine tagged recombinant Human Lymphocyte-Specific Protein Tyrosine Kinase (Lck) and a modified protocol of the KinEASE™ FP Fluorescein Green Assay supplied from Millipore. Kinase reaction were performed at room temperature for 60 minutes in presence of 250 μM substrate, 10 μM ATP and variable test article concentrations. The reaction was stopped with EDTA/kinease detection reagents and the polarization measured on a Tecan 500 instrument. From the dose-response curve obtained, the IC50 was calculated using Graph Pad Prisms® using a non-linear fit curve. The Km for ATP on each enzyme was experimentally determined and the Ki values calculated using the Cheng-Prusoff equation (see: Cheng Y, Prusoff W H. (1973) Relationship between the inhibition constant (K1) and the concentration of inhibitor which causes 50 percent inhibition (I50) of an enzymatic reaction”. Biochem Pharmacol 22 (23): 3099-108).
(§3) ki values are reported in Tables 2 and 3: • a—Less than 100 nM; b—less than 1000 nM; c—more than 1000 nM

[2] = target: T2, histidine tagged recombinant Human Lymphocyte-Specific Protein Tyrosine Kinase (Lck) (Homo sapiens, UniProt P06239); assay: Lck kinase inhibition assay (fluorescence polarization, KinEASE FP Fluorescein Green); assay type: biochemical; settings: 10 μM ATP, 250 μM substrate, 60 minutes, room temperature; Ki from IC50 by Cheng-Prusoff
T2 construct: histidine tag
T2 sequence (P06239 whole entry): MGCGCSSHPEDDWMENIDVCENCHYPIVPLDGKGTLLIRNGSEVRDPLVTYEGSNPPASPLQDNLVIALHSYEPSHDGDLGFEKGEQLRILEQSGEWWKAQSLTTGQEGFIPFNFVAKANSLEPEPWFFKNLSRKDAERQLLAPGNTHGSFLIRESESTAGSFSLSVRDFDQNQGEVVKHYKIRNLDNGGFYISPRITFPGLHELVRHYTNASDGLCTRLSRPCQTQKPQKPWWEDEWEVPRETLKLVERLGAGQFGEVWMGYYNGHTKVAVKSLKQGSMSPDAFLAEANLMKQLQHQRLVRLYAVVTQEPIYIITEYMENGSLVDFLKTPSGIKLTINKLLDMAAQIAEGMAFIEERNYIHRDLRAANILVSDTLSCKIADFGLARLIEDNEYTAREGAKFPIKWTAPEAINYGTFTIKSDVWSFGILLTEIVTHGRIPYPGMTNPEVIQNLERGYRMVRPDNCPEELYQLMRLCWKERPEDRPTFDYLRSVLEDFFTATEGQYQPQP
Procedure: as §1, §2, §3

Ki [1] [nM]	Ki [2] [nM]	Structure (SMILES)	EC50 (mouse splenocytes) [nM]
> 1000	< 1000	Nc1ncnc2c3c(n(-c4ccc(Oc5ccccc5)cc4)c12)CN(S(=O)(=O)c1ccccc1)C3 [Compound 9]	
< 1000	< 100	CC1OCc2c1c1ncnc(N)c1n2-c1ccc(Oc2cccc(Cl)c2)cc1 (stereo not drawn) [Compound 31]	100 to 1000
> 1000	< 1000	CC1OCc2c1c1ncnc(N)c1n2-c1ccc(Oc2cccc([N+](=O)[O-])c2)cc1 (stereo not drawn) [Compound 45]	> 1000
> 1000	< 100	Nc1ncnc2c3c(n(-c4ccc(Cc5ccccc5)cc4)c12)CCC3 [Compound 22]	
> 1000	< 1000	Nc1ncnc2c3c(n(-c4ccc(Oc5ccccc5)cc4)c12)CN(C(=O)c1ccccc1)C3 [Compound 18]	
< 100		CC(=O)Nc1cccc(COc2cccc(Oc3ccc(-n4c5c(c6ncnc(N)c64)CCC5)cc3)c2)c1 [Compound 130]	100 to 1000
> 1000		CC1OCc2c1c1ncnc(N)c1n2-c1ccc(Oc2cccc(OCCCN(C)C)c2)cc1 (stereo not drawn) [Compound 73]	> 1000
< 100		CC1OCc2c1c1ncnc(N)c1n2-c1ccc(Oc2cccc(NC(=O)Cc3ccccc3)c2)cc1 (stereo not drawn) [Compound 84]	> 1000
> 1000		Nc1ncnc2c3c(n(-c4ccc(Oc5ccccc5)cc4)c12)CSC3 [Compound 63]	> 1000
< 100		COc1cccc(COc2cccc(Oc3ccc(-n4c5c(c6ncnc(N)c64)CCC5)cc3)c2)c1 [Compound 123]	100 to 1000
< 100		COc1cccc(COc2cccc(Oc3ccc(-n4c5c(c6ncnc(N)c64)C(C)OC5)cc3)c2)c1 (stereo not drawn) [Compound 103]	100 to 1000
< 100		CC1OCc2c1c1ncnc(N)c1n2-c1ccc(Oc2cccc(OCCC3CCCCC3)c2)cc1 (stereo not drawn) [Compound 124]	100 to 1000
< 1000		CC(=O)Nc1ccccc1OCc1cccc(Oc2ccc(-n3c4c(c5ncnc(N)c53)C(C)OC4)cc2)c1 (stereo not drawn) [Compound 141]	100 to 1000
< 100		CC1OCc2c1c1ncnc(N)c1n2-c1ccc(Oc2cccc(OCc3ccc(Cl)cc3)c2)cc1 (stereo not drawn) [Compound 95]	100 to 1000
> 1000		CC1OCc2c1c1ncnc(N)c1n2-c1ccc(Oc2cccc(OCC(N)=O)c2)cc1 (stereo not drawn) [Compound 83]	> 1000
> 1000		Nc1ncnc2c3c(n(-c4ccc(Oc5ccccc5)cc4)c12)CS(=O)(=O)C3 [Compound 65]	> 1000
< 100		CC1OCc2c1c1ncnc(N)c1n2-c1ccc(Oc2cccc(OCc3ccccc3C#N)c2)cc1 (stereo not drawn) [Compound 96]	< 100
> 1000		CC1OCc2c1c1ncnc(N)c1n2-c1ccc(Oc2ccncc2)cc1 (stereo not drawn) [Compound 74]	> 1000
< 100		CC1OCc2c1c1ncnc(N)c1n2-c1ccc(Oc2cccc(OCc3cccc(Cl)c3)c2)cc1 (stereo not drawn) [Compound 97]	100 to 1000
< 100		Cc1nc(COc2cccc(Oc3ccc(-n4c5c(c6ncnc(N)c64)C(C)OC5)cc3)c2)cs1 (stereo not drawn) [Compound 102]	100 to 1000
< 100		CC(C)CC(=O)Nc1cccc(Oc2ccc(-n3c4c(c5ncnc(N)c53)C(C)OC4)cc2)c1 (stereo not drawn) [Compound 114]	100 to 1000

The next lines start with the compound.

Structure (SMILES)	Ki [1] [nM]	Ki [2] [nM]	EC50 (mouse splenocytes) [nM]
CCN1Cc2c(n(-c3ccc(Oc4ccccc4)cc3)c3c(N)ncnc23)C1 [Compound 14]	> 1000	< 1000	> 1000
COc1cc(F)cc(Oc2ccc(-n3c4c(c5ncnc(N)c53)C(C)OC4)cc2)c1 (stereo not drawn) [Compound 59]	< 1000	< 100	100 to 1000
CC1OCc2c1c1ncnc(N)c1n2-c1ccc(Oc2ccccc2Cl)cc1 (stereo not drawn) [Compound 33]	< 1000	< 100	100 to 1000
CC1OCc2c1c1ncnc(N)c1n2-c1ccc(Oc2cccc(C(N)=O)c2)cc1 (stereo not drawn) [Compound 38]	> 1000	> 1000	> 1000
Nc1ncnc2c3c(n(-c4ccc(Oc5ccccc5)cc4)c12)CCCC3 [Compound 13]	< 1000	< 1000	> 1000
CCN1CCc2c(c3ncnc(N)c3n2-c2ccc(Oc3ccccc3)cc2)C1 [Compound 15]	> 1000	< 100	
Nc1ncnc2c3c(n(-c4ccc(Oc5ccccc5)cc4)c12)CCNC3 [Compound 8]	> 1000	< 1000	
CCNc1cccc(Oc2ccc(-n3c4c(c5ncnc(N)c53)C(C)OC4)cc2)c1 (stereo not drawn) [Compound 66]	< 1000		100 to 1000
CC1OCc2c1c1ncnc(N)c1n2-c1ccc(Oc2cccc(NS(=O)(=O)c3ccccc3)c2)cc1 (stereo not drawn) [Compound 80]	< 1000		> 1000
COc1ccc(COc2cccc(Oc3ccc(-n4c5c(c6ncnc(N)c64)CCC5)cc3)c2)cc1 [Compound 129]	< 100		100 to 1000
Cc1nc(COc2cccc(Oc3ccc(-n4c5c(c6ncnc(N)c64)C(C)OC5)cc3)c2)no1 (stereo not drawn) [Compound 87]	< 100		> 1000
CC1OCc2c1c1ncnc(N)c1n2-c1ccc(Oc2cccc(OCc3cccc([N+](=O)[O-])c3)c2)cc1 (stereo not drawn) [Compound 113]	< 100		100 to 1000
CC1OCc2c1c1ncnc(N)c1n2-c1ccc(Oc2cccc(NCc3ccccc3)c2)cc1 (stereo not drawn) [Compound 69]	< 100		> 1000
CC1OCc2c1c1ncnc(N)c1n2-c1ccc(Oc2cccc(OCc3cccc(F)c3)c2)cc1 (stereo not drawn) [Compound 99]	< 100		100 to 1000
COc1ccc(OCc2cccc(Oc3ccc(-n4c5c(c6ncnc(N)c64)C(C)OC5)cc3)c2)cc1 (stereo not drawn) [Compound 131]	< 100		100 to 1000
CC1OCc2c1c1ncnc(N)c1n2-c1ccc(Oc2cccc(OCc3ccccc3F)c2)cc1 (stereo not drawn) [Compound 94]	< 100		100 to 1000

Structure (SMILES)	Ki [1] [nM]	Ki [2] [nM]	EC50 (mouse splenocytes) [nM]
CC1OCc2c1c1ncnc(N)c1n2-c1ccc(Oc2cccc(OCc3ccccc3C(F)(F)F)c2)cc1 (stereo not drawn) [Compound 100]	< 100		< 100
CC1OCc2c1c1ncnc(N)c1n2-c1ccc(Oc2cccc(OCc3ccc(C#N)cc3)c2)cc1 (stereo not drawn) [Compound 64]	< 1000		> 1000
COc1ccc(COc2cccc(Oc3ccc(-n4c5c(c6ncnc(N)c64)C(C)OC5)cc3)c2)cc1 (stereo not drawn) [Compound 104]	< 100		100 to 1000
CC1OCc2c1c1ncnc(N)c1n2-c1ccc(Oc2cccc(NS(C)(=O)=O)c2)cc1 (stereo not drawn) [Compound 76]	< 1000		> 1000
CC1OCc2c1c1ncnc(N)c1n2-c1ccc(Oc2cccc(COc3ccccc3)c2)cc1 (stereo not drawn) [Compound 85]	< 100		100 to 1000
CC1OCc2c1c1ncnc(N)c1n2-c1ccc(Oc2cccnc2)cc1 (stereo not drawn) [Compound 72]	> 1000		> 1000
CC1OCc2c1c1ncnc(N)c1n2-c1ccc(Oc2cccc(O[C@H](C)c3ccccc3)c2)cc1 (stereo partly drawn) [Compound 78]	< 1000		> 1000
CC1OCc2c1c1ncnc(N)c1n2-c1ccc(Oc2ccc(C#N)cc2)cc1 (stereo not drawn) [Compound 71]	> 1000		> 1000
CC1OCc2c1c1ncnc(N)c1n2-c1ccc(Oc2cccc(NC(=O)c3cccc(Cl)c3)c2)cc1 (stereo not drawn) [Compound 119]	< 100		100 to 1000
Nc1ncnc2c3c(n(-c4ccc(Oc5cccc(OCc6ccccc6)c5)cc4)c12)CCC3 [Compound 68]	< 100		100 to 1000
CC1OCc2c1c1ncnc(N)c1n2-c1ccc(Oc2cccc(OCc3cccc(C#N)c3)c2)cc1 (stereo not drawn) [Compound 89]	< 100		100 to 1000
CC1OCc2c1c1ncnc(N)c1n2-c1ccc(Oc2cccc(OCc3cccc(OCCN(C)C)c3)c2)cc1 (stereo not drawn) [Compound 139]	< 100		100 to 1000
CC1OCc2c1c1ncnc(N)c1n2-c1ccc(Oc2cccc(NS(=O)(=O)Cc3ccccc3)c2)cc1 (stereo not drawn) [Compound 81]	< 100		> 1000
N#Cc1ccccc1COc1cccc(Oc2ccc(-n3c4c(c5ncnc(N)c53)CCC4)cc2)c1 [Compound 122]	< 100		100 to 1000
CC1OCc2c1c1ncnc(N)c1n2-c1ccc(Oc2cccc(OCC3CCOCC3)c2)cc1 (stereo not drawn) [Compound 67]	< 100		> 1000

— US9624239B2, “Protein kinase inhibitors” (Pharmascience Inc., priority 2011, dated 2017)
